The text below walks through data of US8329726B2, “Inhibitors of VEGF receptor and HGF receptor signaling” (MethylGene Inc., priority 2005, dated 2012).

For one test, the system named is U87MG. Kind of test: In vivo solid tumor disease model, U87MG. Conditions: 75 mg/kg p.o. once daily, 14 days. On the set-up: species or system female athymic CD1 mice. The text has this:
In Vivo Solid Tumor Disease Model
This test measures the capacity of compounds to inhibit solid tumor growth.
Tumor xenografts are established in the flank of female athymic CD1 mice (Charles River Inc.), by subcutaneous injection of 1×10^6 U87, A431 or SKLMS cells/mouse. Once established, tumors are then serially passaged s.c. in nude mice hosts. Tumor fragments from these host animals are used in subsequent compound evaluation experiments. For compound evaluation experiments female nude mice weighing approximately 20 g are implanted s.c. by surgical implantation with tumor fragments of ˜30 mg from donor tumors. When the tumors are approximately 100 mm^3 in size (˜7-10 days following implantation), the animals are randomized and separated into treatment and control groups. Each group contains 6-8 tumor-bearing mice, each of which is ear-tagged and followed individually throughout the experiment.
Mice are weighed and tumor measurements are taken by calipers three times weekly, starting on Day 1. These tumor measurements are converted to tumor volume by the well-known formula […]. The experiment is terminated when the control tumors reach a size of approximately 1500 mm^3. […] In addition to tumor volumes, body weight of animals is monitored twice weekly for up to 3 weeks. […]

A further test deals with A549. Kind of test: In vivo solid tumor disease model, A549. Further details: species or system female athymic CD1 mice. Conditions: 14 days.
The test system of another test is Colo265. Kind of test: In vivo solid tumor disease model, Colo265. Further details: species or system female athymic CD1 mice. Particulars: Colo265, 30 mg/kg i.p. once daily, 14 days.
The target of a further test is T1, VEGF receptor KDR (Homo sapiens, UniProt P35968).
T1 construct: made in house; host or cells: Sf9 cells (Spodoptera frugiperda), baculovirus
T1 sequence (P35968 806-1356): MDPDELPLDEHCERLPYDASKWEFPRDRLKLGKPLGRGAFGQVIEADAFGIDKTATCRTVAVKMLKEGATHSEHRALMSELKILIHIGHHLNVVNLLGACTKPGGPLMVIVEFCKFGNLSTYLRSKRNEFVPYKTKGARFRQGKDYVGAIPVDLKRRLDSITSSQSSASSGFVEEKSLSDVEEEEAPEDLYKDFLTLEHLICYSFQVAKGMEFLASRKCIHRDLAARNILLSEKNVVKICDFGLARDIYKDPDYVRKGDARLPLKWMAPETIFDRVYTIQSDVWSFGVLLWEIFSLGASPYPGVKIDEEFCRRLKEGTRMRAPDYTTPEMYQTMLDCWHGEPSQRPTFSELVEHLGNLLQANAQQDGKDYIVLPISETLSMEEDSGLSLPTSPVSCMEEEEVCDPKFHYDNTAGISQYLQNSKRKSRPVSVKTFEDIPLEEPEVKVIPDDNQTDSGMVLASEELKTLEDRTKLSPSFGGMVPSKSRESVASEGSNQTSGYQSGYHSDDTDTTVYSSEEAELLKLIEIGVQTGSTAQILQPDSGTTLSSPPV
Description: In vitro receptor tyrosine kinase assay (DELFIA), VEGF receptor KDR. The format is biochemical. Conditions: GST-VEGFR2 806-1356, 0.6 uM ATP, DELFIA; read-out: VEGFR (IC50).

For another test, the target named is T2, TPR-MET fusion protein (Homo sapiens, UniProt P08581).
T2 construct: the MET gene on chromosome 7 encoding for its cytoplasmic region catalytic domain; host or cells: MNNGHOS cells; the other entry of the earlier key: TPR (P12270, Nucleoprotein TPR)
T2 sequence (P08581 with tags, fused parts or gaps): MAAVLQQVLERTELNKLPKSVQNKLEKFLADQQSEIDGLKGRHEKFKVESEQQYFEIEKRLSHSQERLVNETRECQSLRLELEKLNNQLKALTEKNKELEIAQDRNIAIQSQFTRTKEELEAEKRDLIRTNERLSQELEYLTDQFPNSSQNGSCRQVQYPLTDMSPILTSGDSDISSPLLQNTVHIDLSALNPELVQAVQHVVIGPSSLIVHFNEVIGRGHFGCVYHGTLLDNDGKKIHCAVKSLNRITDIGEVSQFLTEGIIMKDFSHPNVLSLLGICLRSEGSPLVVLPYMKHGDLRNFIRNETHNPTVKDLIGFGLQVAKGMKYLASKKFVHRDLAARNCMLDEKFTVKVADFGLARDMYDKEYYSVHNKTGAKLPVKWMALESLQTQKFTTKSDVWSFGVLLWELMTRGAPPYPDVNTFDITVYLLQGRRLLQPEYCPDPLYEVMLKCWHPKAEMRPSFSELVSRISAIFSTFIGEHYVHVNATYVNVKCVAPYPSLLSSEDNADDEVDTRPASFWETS
Kind of test: C-Met phosphorylation cell-based assay (MNNGHOS cells). Conditions: MNNGHOS cells, 3 hours treatment, immunoblot; read-out: Y1230-34-35 TPR-MET phosphorylation (IC50). The text has this:
C-Met Phosphorylation Cell-Based Assay
Signal was quantitated by densitometry on Alpha-Imager.
Background: In western blotting, separated proteins are transferred to a membrane and probed.

Test [1] deals with T3, recombinant human c-Met/HGF receptor (Homo sapiens, UniProt P08581).
T3 construct: His tag (pBlueBacHis2A vector); made in house; host or cells: Hi-5 cells (Trichoplusia ni), baculovirus
T3 sequence (P08581 1078-1337): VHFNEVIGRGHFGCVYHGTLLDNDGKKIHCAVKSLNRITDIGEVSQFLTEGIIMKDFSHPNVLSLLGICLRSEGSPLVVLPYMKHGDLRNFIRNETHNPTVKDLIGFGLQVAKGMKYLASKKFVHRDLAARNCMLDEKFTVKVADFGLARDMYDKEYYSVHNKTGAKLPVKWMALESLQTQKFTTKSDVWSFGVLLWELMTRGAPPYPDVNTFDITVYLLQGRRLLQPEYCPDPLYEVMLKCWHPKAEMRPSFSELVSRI
Description: In vitro receptor tyrosine kinase assay (DELFIA), c-Met/HGF receptor. The format is biochemical. Conditions: recombinant c-Met IC, 10 uM ATP, DELFIA; read-out: C-Met (IC50). The procedure:
Cell pellets were frozen at −80° C. until purification was performed.
The coated plates were washed and stored at 4° C. […] After incubation, the kinase reactions were quenched with EDTA and the plates were washed.

Another test concerns MV4-11. Kind of test: In vivo solid tumor disease model, MV4-11. Further details: species or system female athymic CD1 mice. Conditions: MV4-11, 20 mg/kg p.o. once daily, 14 days.

For `CCn1cnc(-c2cc3nccc(Oc4ccc(NC(=O)CC(=O)Nc5ccccc5F)cc4F)c3s2)c1` [drawing 461], the “Tumor Growth Inhibition (%)” value with U87MG is reported as “b (% TGI in the range of 50-74)”.

Consider `CCn1cnc(-c2cc3nccc(Oc4ccc(NC(=O)C5(C(=O)Nc6ccccc6)CC5)cc4F)c3s2)c1` [drawing 463], for which the “Tumor Growth Inhibition (%)” value in the test on A549 (A549, 40 mg/kg p.o. once daily) is reported as “b (% TGI in the range of 50-74)”. Take `CN(C(=O)CC(=O)Nc1ccc(Oc2ccnc3cc(-c4cn(CCN5CCCC5)cn4)sc23)c(F)c1)c1ccccc1`: the “Tumor Growth Inhibition (%)” value in the test with Colo265 is on record as “b (% TGI in the range of 50-74)”. On to `CCn1cnc(-c2cc3nccc(Oc4ccc(NC(=O)CC(=O)Nc5ccccc5)cc4F)c3s2)c1` [drawing 460], for which the “Tumor Growth Inhibition (%)” value with U87MG is on record as “b (% TGI in the range of 50-74)”. As for `CN(C)Cc1cccc(-c2cc3nccc(Oc4ccc(NC(=O)CC(=O)Nc5ccccc5F)cc4F)c3s2)c1` [drawing 462], in the test on A549 (A549, 20 mg/kg p.o. once daily), the “Tumor Growth Inhibition (%)” value is listed as “b (% TGI in the range of 50-74)”. By IC50 is commonly meant the point on the concentration scale where inhibition reaches its midpoint. As to `CN(C(=O)CC(=O)Nc1ccc(Oc2ccnc3cc(-c4nccn4C)sc23)c(F)c1)c1ccccc1` [Compound 32, N^1-(3-Fluoro-4-(2-(1-methyl-1H-imidazol-2-yl)thieno[3,2-b]pyridin-7-yloxy)phenyl)-N^3-methyl-N^3-phenylmalonamide], the IC50 on VEGF receptor KDR was 5 nM; at TPR-MET fusion protein it was over 5000 nM; in test [1], 109 nM. The like results for `Cn1cnc(-c2cc3nccc(Oc4ccc(NC(=O)CC(=O)Nc5ccccc5)cc4F)c3s2)c1` [Compound 5c, N^1-{3-Fluoro-4-[2-(1-methyl-1H-imidazol-4-yl)thieno[3,2-b]pyridin-7-yloxy]-phenyl}-N^3-phenylmalonamide] were, in that order, 3 nM, 8 nM and 19 nM.

As for `CN1CCN(CCN(C)Cc2ccc(-c3cc4nccc(Oc5ccc(NC(=O)CC(=O)Nc6ccccc6)cc5F)c4s3)cc2)CC1` [drawing 464], the “Tumor Growth Inhibition (%)” value in the test on MV4-11 was “b (% TGI in the range of 50-74)”.
